Converted amounts (≈) assume the structure as drawn. Read-outs that look alike come from different tables or passages of the source.

One series concerns the target CDK6/cyclin D1 (Homo sapiens, UniProt Q00534). Put plainly: Kinase IC50, 33P labeled isotope method. Type of series: biochemical.
The target of the next series is CDK9/cyclin K (Homo sapiens, UniProt P50750). The series is described as follows: Kinase IC50, 33P labeled isotope method. Type of series: biochemical. The conditions noted are these: 20 μM ATP.
CDK9/cyclin K, sequence (P50750 19-315 limits assumed): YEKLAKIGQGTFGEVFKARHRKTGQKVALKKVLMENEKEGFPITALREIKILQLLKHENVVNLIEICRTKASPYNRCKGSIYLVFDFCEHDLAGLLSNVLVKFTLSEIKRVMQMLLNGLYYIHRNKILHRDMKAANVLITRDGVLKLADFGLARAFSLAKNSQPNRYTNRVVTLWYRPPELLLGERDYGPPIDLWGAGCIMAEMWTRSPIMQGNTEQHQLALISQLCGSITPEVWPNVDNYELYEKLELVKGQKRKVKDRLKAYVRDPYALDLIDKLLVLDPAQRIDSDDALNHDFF
CDK9/cyclin K, sequence (O75909 whole entry partner): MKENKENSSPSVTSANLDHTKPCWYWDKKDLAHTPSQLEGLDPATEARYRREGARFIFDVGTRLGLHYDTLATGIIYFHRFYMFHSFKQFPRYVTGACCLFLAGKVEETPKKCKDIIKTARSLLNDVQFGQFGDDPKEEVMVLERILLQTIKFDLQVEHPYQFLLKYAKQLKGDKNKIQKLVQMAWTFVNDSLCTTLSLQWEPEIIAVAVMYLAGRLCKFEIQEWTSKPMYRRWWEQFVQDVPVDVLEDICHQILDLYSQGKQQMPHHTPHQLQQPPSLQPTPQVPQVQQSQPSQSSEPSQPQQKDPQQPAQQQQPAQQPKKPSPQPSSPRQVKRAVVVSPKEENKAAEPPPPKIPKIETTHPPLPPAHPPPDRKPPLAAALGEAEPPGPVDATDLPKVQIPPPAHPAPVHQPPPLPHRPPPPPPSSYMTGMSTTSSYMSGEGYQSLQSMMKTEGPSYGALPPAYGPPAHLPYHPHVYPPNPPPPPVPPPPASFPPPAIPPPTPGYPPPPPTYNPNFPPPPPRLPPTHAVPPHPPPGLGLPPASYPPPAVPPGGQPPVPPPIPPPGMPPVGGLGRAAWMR
A further series has as its target FLT4/VEGFR3 (Homo sapiens, UniProt P35916). Put plainly: Kinase IC50, 33P labeled isotope method. Format: biochemical.
The target in a further series is GSK3b (Homo sapiens, UniProt P49841). Put plainly: Kinase IC50, 33P labeled isotope method. Type of series: biochemical. The conditions noted are these: 20 μM ATP.
GSK3b, sequence (P49841 56-340 limits assumed): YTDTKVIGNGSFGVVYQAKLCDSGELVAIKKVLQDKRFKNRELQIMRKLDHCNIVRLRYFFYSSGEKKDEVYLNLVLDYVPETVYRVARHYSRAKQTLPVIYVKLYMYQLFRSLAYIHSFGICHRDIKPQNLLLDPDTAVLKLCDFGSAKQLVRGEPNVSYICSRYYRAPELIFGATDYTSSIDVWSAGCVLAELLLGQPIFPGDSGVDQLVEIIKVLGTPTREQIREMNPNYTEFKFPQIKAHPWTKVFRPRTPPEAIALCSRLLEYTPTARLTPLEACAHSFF
The next series concerns the target T1, FLT3 (Homo sapiens, UniProt P36888).
T1 sequence (P36888 610-943 limits assumed): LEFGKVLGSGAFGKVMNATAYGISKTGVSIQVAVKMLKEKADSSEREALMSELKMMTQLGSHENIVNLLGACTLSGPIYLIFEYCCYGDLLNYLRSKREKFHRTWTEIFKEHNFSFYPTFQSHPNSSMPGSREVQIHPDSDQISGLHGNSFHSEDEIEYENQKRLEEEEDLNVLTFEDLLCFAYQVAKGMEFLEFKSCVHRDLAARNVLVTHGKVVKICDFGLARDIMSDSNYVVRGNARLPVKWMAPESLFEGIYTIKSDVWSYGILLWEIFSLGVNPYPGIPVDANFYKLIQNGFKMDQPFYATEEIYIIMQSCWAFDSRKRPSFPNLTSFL
The series is described as follows: Kinase IC50, 33P labeled isotope method. Type of series: biochemical. The conditions noted are these: 20 μM ATP.

Series [1] deals with Candida albicans - ATCC 36082. The series is described as follows: Antifungal activity, modified broth microdilution. Type of series: cell-based. The conditions noted are these: Candida albicans, ATCC36082; 48 hours at 35, approximately 50% reduction of growth. The protocol: (§1) The test microorganisms are maintained on Sabourahd Dextrose Agar slant at 4[…]. Singlet suspension of each microorganism is prepared by growing the yeast overnight at 27[…] on a rotating drum in yeast-nitrogen base broth (YNB) with amino acids (Difco, Detroit, Mich.), (pH 7.0) and 0.05 morpholine propanesulphonic acid (MOPS). […] The activity of the test compound is determined using a modified broth microdilution technique. […] Well 12 serves as a growth control. […] Inoculated plate is incubated for 48 hours at 35 °C. […] Minimal Cytolytic Concentration (MCC) is determined by subculturing all wells from the 96-well plate onto a Sabourahd Dextrose Agar (SDA) plate, incubating for 1-2 days at 35 °C, and then checking viability.
In general terms: Broth dilution looks for growth in wells or tubes with falling amounts of substance.

Another series concerns Candida parapsilosis. The series is described as follows: Antifungal activity, modified broth microdilution. Format: cell-based. The conditions noted are these: Lodderomyces parapsilosis; 48 hours at 35, approximately 50% reduction of growth. The protocol:
as §1

A further series deals with Candida tropicalis. The series is described as follows: Antifungal activity, modified broth microdilution. Format: cell-based. The conditions noted are these: Candida tropicalis; 48 hours at 35, approximately 50% reduction of growth. The protocol:
as §1

The next series deals with Cryptococcus neoformans. The series is described as follows: Antifungal activity, modified broth microdilution. Format: cell-based. The conditions noted are these: Cryptococcus neoformans; 48 hours at 35, approximately 50% reduction of growth. The protocol:
as §1

A further series deals with Phytophthora infestans. Type of series: in vivo.
A short description of series [2]: Measurement of water solubility. Format: physicochemical. The conditions noted are these: thermodynamic from solid, distilled water, 25° C. The protocol: An excess quantity of sample was added into a 50 mL triangular flask, to which 10 mL distilled water was added, and then the flask was vibrated in a Constant Temperature Vibrator at 25° C. for 72 h. The solution was centrifuged at 10000 r/min for 15 min and then the supernatant was filtrated with […] microfiltration membrane to remove undissolved drug. 2 mL filtrate was metered with methanol to 10 ml. The content of drug was determined with 20 μL sample injection.

Series [3] relates to colon cancer cell line HCT116. Put plainly: Anti-tumor activity in vitro, MTT method. Format: cell-based. The conditions noted are these: Homo sapiens, HCT-116, 48 h. For orientation: Tetrazolium dyes change colour on reduction, which living cells bring about.
The test system of series [4] is liver cancer cell line 7721. Put plainly: Anti-tumor activity in vitro, MTT method. The conditions noted are these: 48 h, read-out: 7721 (IC50/μM). Type of series: cell-based.
The next series concerns lung cancer cell H1299. The series is described as follows: Anti-tumor activity in vitro, MTT method. The conditions noted are these: Homo sapiens, NCI-H1299, 48 h, read-out: H1299 (IC50/μM). Format: cell-based.

CDK6/cyclin D1, sequence (Q00534 13-300 limits assumed): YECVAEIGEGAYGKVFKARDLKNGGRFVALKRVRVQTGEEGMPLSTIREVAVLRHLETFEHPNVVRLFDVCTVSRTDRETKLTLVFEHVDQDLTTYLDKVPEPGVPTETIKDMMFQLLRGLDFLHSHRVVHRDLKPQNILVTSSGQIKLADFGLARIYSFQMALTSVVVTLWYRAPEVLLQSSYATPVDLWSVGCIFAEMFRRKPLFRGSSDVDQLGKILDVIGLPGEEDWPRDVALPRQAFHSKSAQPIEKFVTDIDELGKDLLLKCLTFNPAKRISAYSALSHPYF
CDK6/cyclin D1, sequence (P24385 whole entry partner): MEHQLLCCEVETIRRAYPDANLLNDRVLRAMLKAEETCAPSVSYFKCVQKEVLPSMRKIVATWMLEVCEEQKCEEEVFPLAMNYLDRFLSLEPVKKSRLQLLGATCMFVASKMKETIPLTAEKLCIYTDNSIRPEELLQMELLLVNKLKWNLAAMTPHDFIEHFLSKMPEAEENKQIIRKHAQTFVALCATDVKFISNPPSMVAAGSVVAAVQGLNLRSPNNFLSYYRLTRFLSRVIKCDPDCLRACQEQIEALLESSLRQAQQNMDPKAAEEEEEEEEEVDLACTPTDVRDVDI
FLT4/VEGFR3, sequence (P35916 845-1173 limits assumed): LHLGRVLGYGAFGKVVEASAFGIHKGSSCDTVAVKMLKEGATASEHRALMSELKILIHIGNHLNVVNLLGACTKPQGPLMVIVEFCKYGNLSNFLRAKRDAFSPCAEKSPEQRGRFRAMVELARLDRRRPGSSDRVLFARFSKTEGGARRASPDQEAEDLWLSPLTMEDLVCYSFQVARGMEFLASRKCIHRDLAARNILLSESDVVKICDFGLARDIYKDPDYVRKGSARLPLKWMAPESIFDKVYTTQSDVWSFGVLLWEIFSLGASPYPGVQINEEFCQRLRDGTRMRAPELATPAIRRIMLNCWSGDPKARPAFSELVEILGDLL

On to `Cc1cc2c(Nc3c[nH]nc3C(=O)Nc3ccc(CN4CCN(C)CC4)cc3)ncnc2s1` [Compound I-3, 4-(4-(6-methylthieno[2,3-d]pyrimidinyl)amino)-N-(4-((4-methyl-1-piperazinyl)methyl)phenyl)-1H-3-pyrazolecarboxamide], for which the melting point was 235 to 238 °C. For the same compound, the IC50 at CDK6/cyclin D1 (20 μM ATP, read-out: IC50* CDK6/cyclin D1) came to 4 nM. The compound also registered an IC50 on CDK9/cyclin K of 37 nM. At FLT4/VEGFR3 (20 μM ATP, read-out: IC50* FLT4/VEGFR3), the IC50 is 4 nM. The compound also came in with an IC50 against GSK3b of 1 nM.

On to `Cc1cc2c(Nc3c[nH]nc3C(=O)Nc3ccc(CN4CCN(C)CC4)cc3)nccc2s1` [Compound I-27, 4-(4-(2-methylthieno[3,2-c]pyridyl)amino)-N-(4-((4-methyl-1-piperazinyl)methyl)phenyl)-1H-3-pyrazolecarboxamide], for which the melting point fell in the range of 267 to 269 °C. The same compound displayed an IC50 on CDK9/cyclin K of 43 nM. The same compound had an IC50 at FLT3 of 1 nM. At GSK3b, this compound displayed an IC50 of 1 nM. This compound showed an MIC in [1] of 5.48 µg/mL (≈ 11.9 µM). The compound also displayed an MIC with Candida parapsilosis of 1.02 µg/mL (≈ 2.21 µM). For the same compound, in the series on Candida tropicalis, the MIC amounted to 3.57 µg/mL (≈ 7.73 µM). The compound also came in with an MIC in the series on Cryptococcus neoformans of 4.06 µg/mL (≈ 8.8 µM). Moreover, in the series on Phytophthora infestans (0.0001 (unit not given)), the “Severity of tomato leaf blight” value is recorded as “++++ (>60% blight)”. The “Severity of tomato leaf blight” value with Phytophthora infestans (0.001 (unit not given)) is recorded as “++ (15-40% blight)”. For the same compound, in the series with Phytophthora infestans (0.01 (unit not given)), the “Severity of tomato leaf blight” value is given as “+ (0-15% blight)”. Moreover, the “Severity of tomato leaf blight” value with Phytophthora infestans (0.1 (unit not given)) was “−”.

`Cc1cc2c(Nc3c[nH]nc3C(=O)Nc3ccc(CN4CCN(C)CC4)cc3)ncnc2[nH]1` [Compound I-13, 4-(4-(6-methyl-7H-pyrrolo[2,3-d]pyrimidinyl)amino)-N-(4-((4-methyl-1-piperazinyl)methyl)phenyl)-1H-3-pyrazolecarboxamide]: the melting point is 268 to 270 °C. At CDK9/cyclin K, the IC50 was 43 nM. At FLT3, this compound gave an IC50 of 1 nM. For the same compound, the IC50 at GSK3b stood at 1 nM. This compound registered a minimum inhibitory concentration (MIC) in series [1] of 5.85 µg/mL (≈ 13.1 µM). Besides, in the series with Candida parapsilosis, the lowest concentration to inhibit growth (MIC) was 0.98 µg/mL (≈ 2.2 µM). In addition, in the series with Candida tropicalis, the MIC was 3.24 µg/mL (≈ 7.27 µM). In the series with Cryptococcus neoformans, the lowest concentration to inhibit growth (MIC) was 4.23 µg/mL (≈ 9.49 µM). For the same compound, the “Severity of tomato leaf blight” value in the series with Phytophthora infestans (0.0001 (unit not given)) is recorded as “++ (15-40% blight)”. The “Severity of tomato leaf blight” value with Phytophthora infestans (0.001 (unit not given)) was “++ (15-40% blight)”. Besides, the “Severity of tomato leaf blight” value in the series on Phytophthora infestans (0.01 (unit not given)) is on record as “+ (0-15% blight)”. Moreover, in the series on Phytophthora infestans (0.1 (unit not given)), the “Severity of tomato leaf blight” value is reported as “−”.

`O=C(Nc1ccc(CN2CCOCC2)cc1)c1n[nH]cc1Nc1ncnc2sccc12` [Compound I-2, 4-(4-thieno[2,3-d]pyrimidinylamino)-N-(4-((4-morpholinyl)methyl)phenyl)-1H-3-pyrazolecarboxamide] yielded a melting point of 262 to 265 °C. Moreover, in series [2], the solubility at 72 h is less than 0.08 µg/mL.

With `CN1CCN(Cc2ccc(NC(=O)c3n[nH]cc3Nc3ncnc4[nH]ccc34)cc2)CC1` [Compound I-11, 4-(4-(7H-pyrrolo[2,3-d]pyrimidinyl)amino)-N-(4-((4-methyl-1-piperazinyl)methyl)phenyl)-1H-3-pyrazolecarboxamide], the IC50 was 4 nM against CDK6/cyclin D1, 1 nM on FLT3, 4 nM on FLT4/VEGFR3 and 1 nM against GSK3b. The MIC in series [1] stood at 7.45 µg/mL (≈ 17.3 µM); with Candida parapsilosis, 11.2 µg/mL (≈ 26 µM); with Candida tropicalis, 7.72 µg/mL (≈ 17.9 µM); in the series with Cryptococcus neoformans, 15 µg/mL (≈ 34.8 µM). In addition, the “Severity of tomato leaf blight” value in the series with Phytophthora infestans (0.0001 (unit not given)) is given as “+++ (40-60% blight)”; in the series on Phytophthora infestans (0.001 (unit not given)), “++ (15-40% blight)”; in the series with Phytophthora infestans (0.01 (unit not given)), “+ (0-15% blight)”; with Phytophthora infestans (0.1 (unit not given)), “−”.

`CN1CCN(Cc2ccc(NC(=O)c3n[nH]cc3Nc3ncnc4occc34)cc2)CC1` [Compound I-21, 4-(4-furo[2,3-d]pyrimidinylamino)-N-(4-((4-methyl-1-piperazinyl)methyl)phenyl)-1H-3-pyrazolecarboxamide] came in with a melting point of 255 to 257 °C. The IC50 against CDK9/cyclin K came to 45 nM. On FLT3, the IC50 is 1 nM. On GSK3b, this compound had an IC50 of 1 nM. The IC50 in [3] (read-out: HCT-116 (IC50/μM)) was 9.58 µM. Moreover, the IC50 in series [4] turned out to be 17.4 µM. Also, the IC50 with lung cancer cell H1299 worked out at 7.66 µM. This compound also registered an MIC in series [1] of 7.82 µg/mL (≈ 18.1 µM). This compound registered a minimum inhibitory concentration (MIC) in the series on Candida parapsilosis of 9.76 µg/mL (≈ 22.6 µM). The compound also yielded an MIC against Candida tropicalis of 8.29 µg/mL (≈ 19.2 µM). Also, in the series with Cryptococcus neoformans, the minimal inhibitory concentration (MIC) came to 13.8 µg/mL (≈ 32 µM). Further, the “Severity of tomato leaf blight” value in the series on Phytophthora infestans (0.0001 (unit not given)) is “++++ (>60% blight)”. For the same compound, the “Severity of tomato leaf blight” value with Phytophthora infestans (0.001 (unit not given)) is listed as “++ (15-40% blight)”. The “Severity of tomato leaf blight” value with Phytophthora infestans (0.01 (unit not given)) was “+ (0-15% blight)”. Moreover, the “Severity of tomato leaf blight” value in the series on Phytophthora infestans (0.1 (unit not given)) is listed as “−”.

On to `CN1CCN(Cc2ccc(NC(=O)c3n[nH]cc3Nc3ncnc4sccc34)cc2)CC1` [Compound I-1, 4-(4-thieno[2,3-d]pyrimidinylamino)-N-(4-((4-methyl-1-piperazinyl)methyl)phenyl)-1H-3-pyrazole carboxamide], for which the IC50 at CDK9/cyclin K stood at 39 nM; in series [3] (read-out: HCT116 (IC50/μM)) it was 0.25 µM; in [3] (read-out: HCT-116 (IC50/μM)) it was 0.13 µM; in series [4] it was 6.23 µM; with lung cancer cell H1299, 3.3 µM. Moreover, the MIC in series [1] came out at 2.9 µg/mL (≈ 6.47 µM); against Candida parapsilosis, 2.08 µg/mL (≈ 4.64 µM); with Candida tropicalis, 2.3 µg/mL (≈ 5.13 µM); against Cryptococcus neoformans it was 3.64 µg/mL (≈ 8.11 µM). In addition, the “Severity of tomato leaf blight” value in the series with Phytophthora infestans (0.0001 (unit not given)) is “+++ (40-60% blight)”; in the series with Phytophthora infestans (0.001 (unit not given)), “++ (15-40% blight)”; in the series with Phytophthora infestans (0.01 (unit not given)), “+ (0-15% blight)”; in the series with Phytophthora infestans (0.1 (unit not given)) it was “−”. Further, the solubility at 72 h in series [2] was less than 0.1 µg/mL.

By melting point is commonly meant the temperature of the solid-liquid transition. In general, MIC refers to the smallest concentration in the dilution series that meets the test's criterion for growth inhibition. For orientation: solubility means the concentration that dissolves in the medium under given conditions. A higher solubility goes with a readily soluble substance.

(Values after patent US9550792B2, “Polycyclic substituted pyrazole kinase activity inhibitors and use thereof” (priority 2013, dated 2017).)
